Like-named read-outs stand apart in the source and are kept apart here.
Tests used:
[1] = tested on: patients with Wilson disease (WD)
Description: This assessment is also applicable to SoC treatments. In addition, plasma Cp, CpC, plasma total copper, and LBC were measured with AUEC calculated for plasma total copper and LBC.
The LBC method measures exchangeable plasma copper that is not bound to either Cp or TPC.
Pharmacodynamics: Blood samples were collected to directly measure plasma total copper, PUF copper, dNCC, and LBC. Calculations may be performed for cNCC and cNCCcorrected, the latter of which is non-ceruloplasmin-bound and non-molybdenum-albumin-bound copper.

[2] = tested on: patients with Wilson disease (WD); conditions: in vivo
[3] = tested on: patients with Wilson disease (WD); test: UWDRS Part III minimal clinically important difference (MCID) responders and net promoter score; assay type: in vivo, human
Source text: To calculate net promoter scores, minimal clinically important differences (MCID) were first defined.
Therefore, distribution-based methods were used to compute MCID threshold, half standard deviation (SD), and standard error of measurement (SEM) for the full Study 301 population and the Subpart E population. […] The difference between those two proportions represented the “net promoter score.”

bis-choline tetrathiomolybdate [TTM]
AUEC(0-48 week) LBC, Mean ([1]; Adolescent): 1.5 mmol/L | AUEC(0-48 week) LBC, Median ([1]; Adolescent): 1.2 mmol/L | AUEC(0-48 week) PTC (plasma total copper), Mean ([1]; Adolescent): 7.5 mmol/L | AUEC(0-48 week) PTC (plasma total copper), Median ([1]; Adolescent): 5.4 mmol/L | AUEC(0-48 week) dNCC, Mean ([1]; Adolescent): 2.7 mmol/L | AUEC(0-48 week) dNCC, Median ([1]; Adolescent): 2.3 mmol/L | AUEC(0-48 week) LBC, Mean ([1]; Adult): 1.8 mmol/L | AUEC(0-48 week) LBC, Median ([1]; Adult): 1.2 mmol/L | AUEC(0-48 week) PTC (plasma total copper), Mean ([1]; Adult): 7.8 mmol/L | AUEC(0-48 week) PTC (plasma total copper), Median ([1]; Adult): 7.3 mmol/L | AUEC(0-48 week) dNCC, Mean ([1]; Adult): 3.2 mmol/L | AUEC(0-48 week) dNCC, Median ([1]; Adult): 2.2 mmol/L | AEs in SOC Investigations [2]: 29.5% | AEs in SOC Metabolism and nutrition disorders [2]: 11.5% | AEs in SOC Skin and subcutaneous tissue disorders [2]: 13.1% | Affective disorder, E (events) [2]: 0 | Affective disorder, participants with AE [2]: 0 N (%) | Alanine aminotransferase increased AE, % participants [2]: 19.7% | Alanine aminotransferase increased AE, E events [2]: 14 | Alanine aminotransferase increased AE, N participants [2]: 12 | Anxiety, E (events) [2]: 1 | Anxiety, participants with AE [2]: 1 (1.6) N (%) | Aspartate aminotransferase increased AE, % participants [2]: 6.6% | Aspartate aminotransferase increased AE, E events [2]: 4 | Aspartate aminotransferase increased AE, N participants [2]: 4 | Attention deficit hyperactivity disorder, E (events) [2]: 0 | Attention deficit hyperactivity disorder, participants with AE [2]: 0 N (%) | Blood and lymphatic system disorders, E (events) [2]: 18 | Blood and lymphatic system disorders, participants with AE [2]: 7 (11.5) N (%) | Cardiac disorders, E (events) [2]: 5 | Cardiac disorders, participants with AE [2]: 3 (4.9) N (%) | Congenital, familial, and genetic disorders, E (events) [2]: 0 | Congenital, familial, and genetic disorders, participants with AE [2]: 0 N (%) | Dyslipidemia AE, % participants [2]: 1.6% | Dyslipidemia AE, E events [2]: 1 | Dyslipidemia AE, N participants [2]: 1 | Ear and labyrinth disorders, E (events) [2]: 1 | Ear and labyrinth disorders, participants with AE [2]: 1 (1.6) N (%) | Eczema AE, % participants [2]: 1.6% | Eczema AE, E events [2]: 1 | Eczema AE, N participants [2]: 1 | Eye disorders, E (events) [2]: 0 | Eye disorders, participants with AE [2]: 0 N (%) | Fatigue AE, % participants [2]: 8.2% | Fatigue AE, E events [2]: 5 | Fatigue AE, N participants [2]: 5 | Gamma-glutamyltransferase increased AE, % participants [2]: 4.9% | Gamma-glutamyltransferase increased AE, E events [2]: 3 | Gamma-glutamyltransferase increased AE, N participants [2]: 3 | Gastrointestinal disorders, E (events) [2]: 30 | Gastrointestinal disorders, participants with AE [2]: 18 (29.5) N (%) | Hand dermatitis AE, % participants [2]: 1.6% | Hand dermatitis AE, E events [2]: 1 | Hand dermatitis AE, N participants [2]: 1 | Hepatic enzyme increased AE, N participants [2]: 3 | Hepatobiliary disorders, E (events) [2]: 3 | Hepatobiliary disorders, participants with AE [2]: 2 (3.3) N (%) | Hyperlipidaemia AE, % participants [2]: 1.6% | Hyperlipidaemia AE, E events [2]: 1 | Hyperlipidaemia AE, N participants [2]: 1 | Hypertriglyceridaemia AE, % participants [2]: 1.6% | Hypertriglyceridaemia AE, E events [2]: 3 | Hypertriglyceridaemia AE, N participants [2]: 1 | Infections and infestations, E (events) [2]: 23 | Infections and infestations, participants with AE [2]: 17 (27.9) N (%) | Injury, poisoning and procedural complications, E (events) [2]: 13 | Injury, poisoning and procedural complications, participants with AE [2]: 7 (11.5) N (%) | Investigations (SOC) AE, % participants [2]: 29.5% | Investigations (SOC) AE, E events [2]: 29 | Investigations (SOC) AE, N participants [2]: 18 | Metabolism and nutrition disorders (SOC) AE, % participants [2]: 11.5% | Metabolism and nutrition disorders (SOC) AE, E events [2]: 10 | Metabolism and nutrition disorders (SOC) AE, N participants [2]: 7 | Neoplasms benign, malignant, and unspecified (incl cysts and polyps), E (events) [2]: 1 | Neoplasms benign, malignant, and unspecified (incl cysts and polyps), participants with AE [2]: 1 (1.6) N (%) | Nervous system disorders, E (events) [2]: 12 | Nervous system disorders, participants with AE [2]: 11 (18.0) N (%) | Neutrophil count decreased AE, % participants [2]: 1.6% | Neutrophil count decreased AE, E events [2]: 1 | Neutrophil count decreased AE, N participants [2]: 1 | Post-traumatic stress disorder, E (events) [2]: 1 | Post-traumatic stress disorder, participants with AE [2]: 1 (1.6) N (%) | Product issues, E (events) [2]: 0 | Product issues, participants with AE [2]: 0 N (%) | Pruritus AE, % participants [2]: 3.3% | Pruritus AE, E events [2]: 2 | Pruritus AE, N participants [2]: 2 | Psychiatric disorders, E (events) [2]: 3 | Psychiatric disorders, participants with AE [2]: 3 (4.9) N (%) | Pyrexia AE, % participants [2]: 1.6% | Pyrexia AE, E events [2]: 1 | Pyrexia AE, N participants [2]: 1 | Rash AE, % participants [2]: 1.6% | Rash AE, E events [2]: 5 | Rash AE, N participants [2]: 1 | Rash pruritic AE, % participants [2]: 1.6% | Rash pruritic AE, E events [2]: 1 | Rash pruritic AE, N participants [2]: 1 | Renal and urinary disorders, E (events) [2]: 2 | Renal and urinary disorders, participants with AE [2]: 1 (1.6) N (%) | Reproductive system and breast disorders, E (events) [2]: 0 | Reproductive system and breast disorders, participants with AE [2]: 0 N (%) | Respiratory, thoracic, and mediastinal disorders, E (events) [2]: 4 | Respiratory, thoracic, and mediastinal disorders, participants with AE [2]: 3 (4.9) N (%) | Restlessness, E (events) [2]: 0 | Restlessness, participants with AE [2]: 0 N (%) | Skin and subcutaneous tissue disorders (SOC) AE, % participants [2]: 13.1% | Skin and subcutaneous tissue disorders (SOC) AE, E events [2]: 15 | Skin and subcutaneous tissue disorders (SOC) AE, N participants [2]: 8 | Sleep disorder, E (events) [2]: 1 | Sleep disorder, participants with AE [2]: 1 (1.6) N (%) | Vascular disorders, E (events) [2]: 5 | Vascular disorders, participants with AE [2]: 3 (4.9) N (%) | patients improved by ≥5 points in UWDRS Part III ([3]; Study 301, by 48 weeks): 44.8% | UWDRS Part III SD MCID Achievers, Net Promoter Score ([3]; improving minus worsening): 16% | UWDRS Part III SE MCID Achievers, Net Promoter Score ([3]; improving minus worsening): 20% | UWDRS Part III SD MCID Achievers, Improving ([3]; in vivo): 22% | UWDRS Part III SD MCID Achievers, Worsening ([3]; in vivo): 6% | UWDRS Part III SE MCID Achievers, Improving ([3]; in vivo): 28% | UWDRS Part III SE MCID Achievers, Worsening ([3]; in vivo): 8% | patients improved at 4-point change threshold in UWDRS Part III ([3]; incomplete and/or intolerant subgroup, 48 weeks): 43.1%
